Series [1] relates to mouse obesity model induced by high fat diet. The experiment in a line: Mouse obesity model induced by high fat diet. Conditions: oral once a day, high-fat-diet obese mice. The format is in vivo, C57BL/6Ntaconic mice. The procedure: The effect of melanocortin-4 receptor agonists on obesity was evaluated by using the mouse obesity model induced with a high fat diet.
Five-week-old male C57BL/6Ntaconic mice were fed with a 60 kcal % fat diet (D12492, Research Diet.) for 15 weeks to induce obesity. The compound of Example 1, the compounds of the comparative examples (A95 and A96), and sibutramine as a positive control were prepared in distilled water and orally administered to […] mouse obesity models induced by a high-fat diet once a day from day 1 to day 16. From Day 1 to Day 16, the body weight was measured once a day, the dietary intake was measured five times a week, and drinking water intake was measured twice a week. Blood glucose and glycated hemoglobin were measured on Day 15, and all animals were sacrificed on Day 17. Blood was collected through the abdominal vena cava, and the liver and epididymal adipose tissues were removed and weighed. The collected blood was placed in a heparin tube and centrifuged to separate plasma, and then plasma biochemical analysis was performed.

Series [2] has as its target CYP3A4 (Homo sapiens, UniProt P08684). The series is described as follows: CYP inhibition, recombinant enzyme, fluorescence. The format is in vitro ADME. Conditions: recombinant CYP3A4, pH 7.4, 10 μM compound, 30 min pre-incubation, read-out: CYP inhibition (%) at 10 μM, 3A4. Here is the method: (§1) The following Table 8 was referred for the use of a probe substrate, positive control, and isozyme and measurement conditions with respect to the measurement of the inhibitory ability of each substance. [table] […] The buffer spiked with experimental compound was mixed with the same volume of CYP isozyme prep solution so that the final concentration was 10 μM, followed by pre-warming for 10 minutes in a 37° C. fluorescence plate-reader. Each well NRS solution (NADPH Regeneration System: 0.22 mM β-NADP, 2.8 mM glucose-6-phosphate, and 0.6 units/mL of glucose-6-phosphate dehydrogenase) was added, followed by pre-incubation for 30 minutes. Thereafter, the reaction was initiated by adding the substrate to the well subjected to pre-incubation and monitored at intervals of one minute at the measurement wavelength for each substrate for 30 minutes. The measured values obtained from the positive control and the compound of Example 1 were compared with the fluorescence intensity of a negative control (no inhibition or compound) to confirm the inhibitory ability of each compound against isozyme. Inhibitory activity (%) was expressed based on the following criteria: […]

The target in series [3] is T1, CYP1A2 (Homo sapiens, UniProt P05177).
T1 sequence (P05177 1-516): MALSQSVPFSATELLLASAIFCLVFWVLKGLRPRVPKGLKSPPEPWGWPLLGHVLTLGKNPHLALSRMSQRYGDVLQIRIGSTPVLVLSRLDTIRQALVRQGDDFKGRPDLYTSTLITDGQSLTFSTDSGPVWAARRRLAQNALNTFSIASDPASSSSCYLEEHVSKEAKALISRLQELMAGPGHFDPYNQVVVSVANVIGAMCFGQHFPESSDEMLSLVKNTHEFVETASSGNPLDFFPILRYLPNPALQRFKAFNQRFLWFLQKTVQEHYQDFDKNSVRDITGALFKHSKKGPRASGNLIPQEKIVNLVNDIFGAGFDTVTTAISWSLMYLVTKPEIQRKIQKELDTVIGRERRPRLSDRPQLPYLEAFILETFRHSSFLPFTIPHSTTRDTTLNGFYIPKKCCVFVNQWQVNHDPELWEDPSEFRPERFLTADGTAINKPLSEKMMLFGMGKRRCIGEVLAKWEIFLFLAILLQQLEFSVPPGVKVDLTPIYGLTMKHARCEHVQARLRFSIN
The series is described as follows: CYP inhibition, recombinant enzyme, fluorescence. The format is in vitro ADME. The conditions noted are these: recombinant CYP1A2, pH 7.4, 10 μM compound, 30 min pre-incubation, read-out: CYP inhibition (%) at 10 μM, 1A2. The procedure:
as §1

Consider 3 compounds from patent US20220289731A1, “MELANOCORTIN-4 RECEPTOR AGONISTS” (LG CHEM, LTD., priority 2019, published 2022).

The structures appear in SMILES notation.

Chain of CYP3A4 (P08684 whole entry): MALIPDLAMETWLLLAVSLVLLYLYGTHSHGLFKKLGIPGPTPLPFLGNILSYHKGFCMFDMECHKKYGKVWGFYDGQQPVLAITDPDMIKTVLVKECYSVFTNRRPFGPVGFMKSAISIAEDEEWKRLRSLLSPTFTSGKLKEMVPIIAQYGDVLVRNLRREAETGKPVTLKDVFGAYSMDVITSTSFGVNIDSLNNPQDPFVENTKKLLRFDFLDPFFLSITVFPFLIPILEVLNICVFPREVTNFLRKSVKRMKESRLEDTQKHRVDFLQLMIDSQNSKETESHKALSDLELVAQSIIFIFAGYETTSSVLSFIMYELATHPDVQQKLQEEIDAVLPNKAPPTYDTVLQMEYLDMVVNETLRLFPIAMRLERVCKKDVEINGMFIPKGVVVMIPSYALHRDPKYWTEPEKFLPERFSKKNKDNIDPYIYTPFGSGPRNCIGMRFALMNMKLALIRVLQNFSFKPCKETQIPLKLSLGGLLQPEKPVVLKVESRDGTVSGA

Turning to `CC(=O)N(C1CCC(C)(C)CC1)[C@H]1C[C@@H](C(=O)N2CCOCC2)N(C(=O)[C@@H]2CN(C(C)(C)C)C[C@H]2c2ccc(F)cc2F)C1.Cl` [Comparative Example 1 (A95), N-((3S,5S)-1-((3S,4R)-1-(tert-butyl)-4-(2,4-difluorophenyl)pyrrolidine-3-carbonyl)-5-(morpholine-4-carbonyl)pyrrolidin-3-yl)-N-(4,4-dimethylcyclohexyl)acetamide hydrochloride], the “Difference in weight change rate to vehicle” value was −4.8% in series [1] (Day 12, 10 mg/kg) and −4.0% in series [1] (Day 12, 30 mg/kg).
By inhibition is commonly meant the change of the read-out against control, counted positive when it falls. With `CC(=O)N(C1CCC(C)(C)CC1)[C@H]1C[C@@H](C(=O)N2CCOCC2)N(C(=O)[C@@H]2CN(C(C)(C)C)C[C@H]2c2ccc(Cl)cc2)C1.Cl` [Comparative Example 2 (A96), N-((3S,5S)-1-((3S,4R)-1-(tert-butyl)-4-(4-chlorophenyl)pyrrolidine-3-carbonyl)-5-(morpholine-4-carbonyl)pyrrolidin-3-yl)-N-(4,4-dimethylcyclohexyl)acetamide hydrochloride], the inhibition at 30 min, 10 µM in series [2] and in series [3] was below 50% throughout. Moreover, the “Difference in weight change rate to vehicle” value in series [1] (Day 12, 10 mg/kg) is recorded as −0.2%; in series [1] (Day 12, 30 mg/kg), −7.1%.
For the compound `CC(C)C(=O)N([C@H]1C[C@@H](C(=O)N2CCOCC2)N(C(=O)[C@@H]2CN(C(C)(C)C)C[C@H]2c2ccc(Cl)cc2)C1)[C@H]1CC[C@@H](C)CC1.Cl` [Example 1, N-((3S,5S)-1-((3S,4R)-1-(tert-butyl)-4-(4-chlorophenyl)pyrrolidine-3-carbonyl)-5-(morpholine-4-carbonyl)pyrrolidin-3-yl)-N-((1s,4R)-4-methylcyclohexyl)isobutyramide hydrochloride], the inhibition at 30 min, 10 µM in series [2] and in series [3] was below 50% in each case.
